Earlier results, collected in patent publication US10507186B2, “Methods and compositions particularly for treatment of attention deficit disorder” (Purdue Pharma L.P., priority 2014, dated 2019).
Counter-ions that a name gives are not always drawn. Like-named read-outs stand apart in the source and are kept apart here.

Legend:
[1] = system: ADHD symptoms in patients; settings: long-acting lisdexamfetamine dimesylate

COC(=O)C(c1ccccc1)C1CCCCN1 (stereo not drawn) [Methylphenidate hydrochloride]
solubility (in acetone): slightly soluble | solubility (in alcohol): soluble | solubility (in chloroform): slightly soluble | solubility (in methanol): freely soluble | solubility (in water): freely soluble

lisdexamfetamine dimesylate
reported duration of action [1]: up to 14 hours

COC(=O)C(c1ccccc1)C1CCCCN1 (racemic) [Methylphenidate, dl-threo-methyl-2-phenyl-2-(2-piperidyl)acetate]
degradation amount (as the pH increases to 8.9): up to 100% | stability (in acidic solutions): relatively stable | stability (in basic solutions, hydrolysis of the methyl ester to the free acid): degraded extensively
